US6783973B1, “Mammalian catecholamine receptor genes and uses” (Oregon Health & Science University, priority 2000, dated 2004)

What was measured:
[1] = tested on: HEK 293 cells transfected with pcDNA3.1 without catecholamine receptor sequences; assay: MAP kinase pathway stimulation, Elk-gal/luciferase reporter assay in control HEK 293 cells transfected with pcDNA3.1; conditions: control HEK 293 cells with empty vector pcDNA3.1; compared with cells incubated in the absence of the ligand
[2] = tested on: human catecholamine receptor; assay: MAP kinase pathway stimulation, Elk-gal/luciferase reporter assay in HEK 293 cells transfected with H2-3pcDNA3.1; conditions: HEK 293 cells expressing FLAG/D2-tagged human catecholamine receptor; compared with cells incubated in the absence of the ligand

SMILES | fold stimulation of luciferase (MAP kinase activation), pcDNA3.1 [1] [fold] | fold stimulation of luciferase (MAP kinase activation), H2-3 pcDNA3.1 [2] [fold]
NC1CCc2cc(O)c(O)cc2C1 (centres unmarked) [ADTN67] | 0.78 | 1.93
NC[C@H](O)c1ccc(O)c(O)c1 [Norepinephrine] | 1.3 | 1.69
C=CCN1CCc2c(cc(O)c(O)c2Cl)C(c2ccccc2)C1 (centres unmarked) [SKF82958] | 0.79 | 2.52
NCCc1c[nH]c2ccc(O)cc12 [Serotonin] | 1 | 1.22
